From paper PMC13289212, “HIVIL: A human in vitro inflammatory liver model recapitulates immune-associated drug effects with high predictivity” (NAM journal, 2025)
Where two headings read alike, the source gives them in different places.

Legend:
IL-6 [1] = assay: IL-6 ELISA in HIVIL (iKCs co-cultured with iHeps, LPS, 48 hr); type: cell-based, human; details: for IL-6 response: result in words; for IC50: Homo sapiens, LPS, 48 hr
Excerpt: Human iPSC cell line iPS (IMR90)-4 was purchased from WiCell Research Institute (Madison, WI), and maintained with a feeder-free method according to the instruction from […] Technologies (Vancouver, BC, Canada). The protocol of differentiation towards iKCs and iHeps as described previously with slight modification ([Tasnim et al., 2019]; [Cai et al., 2012]), respectively. […] More details are provided in Supplementary Methods. After differentiation, iKCs was harvested using 0.05 % trypsin-EDTA (Gibco, Waltham, Massachusetts, USA), while iHeps were dissociated with TrypLE^TM (Gibco). iHep suspension was further filtered through a 40 µm cell strainer to remove extracellular matrix clumps. Cell suspension was centrifuged at 1000 rpm for 5 min. For co-culture set up, tissue culture plates were coated with Rat tail collagen I (Gibco) diluted 100-fold in 0.02 N acetic acid, and incubated at 37 °C for 1 h and washed 3 times with PBS. According to the protocol optimized by [Tasnim et al. (2019)], iKCs was firstly seeded at a density of 14,000 per well on 96-well plate with Advanced DMEM (plus supplements) containing 5 % FBS. On the following day, iHeps were added at a density of 35,000 per well in Williams’ Medium E (plus supplements) (iHep: iKCs ratio = 2.5: 1). This reflects the physiological ratio of these cells in vivo under inflammatory conditions ([Tasnim et al., 2021]). Fresh media containing drugs was applied to co-cultures the next day. 50,000 cells were seeded to establish iHeps monoculture. THP-1 cells were kindly obtained from Dr. Eliza Fong and cultured as described by [Zeng et al. (2015)]. Details provided in Supplementary Methods.
(§1) Stock solutions of drugs were prepared in dimethyl sulfoxide (DMSO) and dissolved in medium prior to use. […] For these two drugs, the highest DMSO concentration was 1 %. Supernatant was collected at 48 hr for measurement of cytokines, and remaining cells were subjected to viability assay prior to lysis for RNA extraction.
Enzyme-linked immunosorbent assay (ELISA) for measurement of cytokines: Interleukin-6 (IL-6), interleukin-10 (IL-10) and tumor necrosis factor alpha (TNFα) levels in the media were measured using the corresponding human-based ELISA kits (Abcam, Cambridge, United Kingdom) according to manufacturer’s instructions. The cytokine production from dosed cells was normalized with the viability value from the same well. The normalized cytokine level upon drug treatments was further presented as percentage of DMSO+LPS. […] This normalization approach has been used in previous studies (Rose et al. 2016).

[2] = system: HIVIL (iKCs co-cultured with iHeps); assay: AlamarBlue cell viability in HIVIL; details: for IC50: Homo sapiens
Experimental: as §1

IL-6 [3] = assay: IL-6 ELISA in iPSC(F4)-derived HIVIL; type: cell-based, human; details: result in words
Experimental: (§2) Enzyme-linked immunosorbent assay (ELISA) for measurement of cytokines: Interleukin-6 (IL-6), interleukin-10 (IL-10) and tumor necrosis factor alpha (TNFα) levels in the media were measured using the corresponding human-based ELISA kits (Abcam, Cambridge, United Kingdom) according to manufacturer’s instructions. The cytokine production from dosed cells was normalized with the viability value from the same well. The normalized cytokine level upon drug treatments was further presented as percentage of DMSO+LPS. Normalization to viability per well ensures that any changes in cytokines are not due to changes in cell numbers upon drug treatment and normalization to DMSO+LPS allows better comparison between different batches of experiments. This normalization approach has been used in previous studies (Rose et al. 2016).

IL-6 [4] = assay: IL-6 production of iKC mono-culture; type: cell-based, human; details: result in words
Experimental: as §2

IL-10 [5] = system: IL-10; design: method as in Bekker et al. 2016; details: ref Bekker et al. 2016; cited from earlier work
cytokines = system: cytokines; design: method as in ref Ganey et al. 2004; Honarmand et al. 2012; Manna and Aggarwal 1999; Yao et al. 2004; details: ref Ganey et al. 2004; Honarmand et al. 2012; Manna and Aggarwal 1999; Yao et al. 2004; cited from earlier work
IL-6 [6] = details: other in vitro models deploying 1-10 μg/mL of LPS; ref Jiang et al. 2019; Li et al. 2020; cited from earlier work
[7] = FDA-labeling information; ref Chen et al. 2016; cited from earlier work
IL-10 [8] = assay: IL-10 ELISA in HIVIL (iKCs co-cultured with iHeps, LPS, 48 hr); type: cell-based, human; details: result in words
Excerpt: Human iPSC cell line iPS (IMR90)-4 was purchased from WiCell Research Institute (Madison, WI), and maintained with a feeder-free method according to the instruction from […] Technologies (Vancouver, BC, Canada). The protocol of differentiation towards iKCs and iHeps as described previously with slight modification ([Tasnim et al., 2019]; [Cai et al., 2012]), respectively. […] More details are provided in Supplementary Methods. After differentiation, iKCs was harvested using 0.05 % trypsin-EDTA (Gibco, Waltham, Massachusetts, USA), while iHeps were dissociated with TrypLE^TM (Gibco). iHep suspension was further filtered through a 40 µm cell strainer to remove extracellular matrix clumps. Cell suspension was centrifuged at 1000 rpm for 5 min. For co-culture set up, tissue culture plates were coated with Rat tail collagen I (Gibco) diluted 100-fold in 0.02 N acetic acid, and incubated at 37 °C for 1 h and washed 3 times with PBS. […]
Enzyme-linked immunosorbent assay (ELISA) for measurement of cytokines: Interleukin-6 (IL-6), interleukin-10 (IL-10) and tumor necrosis factor alpha (TNFα) levels in the media were measured using the corresponding human-based ELISA kits (Abcam, Cambridge, United Kingdom) according to manufacturer’s instructions. […]

IL-6 [9] = assay: IL-6 response in HIVIL using THP-1 macrophages co-cultured with iHeps; type: cell-based, human; details: HIVIL with THP-1 instead of iKCs, result in words
Excerpt: Human iPSC cell line iPS (IMR90)-4 was purchased from WiCell Research Institute (Madison, WI), and maintained with a feeder-free method according to the instruction from […] Technologies (Vancouver, BC, Canada). The protocol of differentiation towards iKCs and iHeps as described previously with slight modification ([Tasnim et al., 2019]; [Cai et al., 2012]), respectively. The re-optimized protocol to generate iKCs is discussed in Results section. More details are provided in Supplementary Methods. After differentiation, iKCs was harvested using 0.05 % trypsin-EDTA (Gibco, Waltham, Massachusetts, USA), while iHeps were dissociated with TrypLE^TM (Gibco). iHep suspension was further filtered through a 40 µm cell strainer to remove extracellular matrix clumps. Cell suspension was centrifuged at 1000 rpm for 5 min. For co-culture set up, tissue culture plates were coated with Rat tail collagen I (Gibco) diluted 100-fold in 0.02 N acetic acid, and incubated at 37 °C for 1 h and washed 3 times with PBS. According to the protocol optimized by [Tasnim et al. (2019)], iKCs was firstly seeded at a density of 14,000 per well on 96-well plate with Advanced DMEM (plus supplements) containing 5 % FBS. On the following day, iHeps were added at a density of 35,000 per well in Williams’ Medium E (plus supplements) (iHep: iKCs ratio = 2.5: 1). This reflects the physiological ratio of these cells in vivo under inflammatory conditions ([Tasnim et al., 2021]). Fresh media containing drugs was applied to co-cultures the next day. 50,000 cells were seeded to establish iHeps monoculture. THP-1 cells were kindly obtained from Dr. Eliza Fong and cultured as described by [Zeng et al. (2015)]. Details provided in Supplementary Methods.
THP-1 maintenance and differentiation: THP-1 monocytic lineage was maintained in RPMI 1640 with 10% FBS. For differentiation to macrophages, suspension cells were collected and subjected to 2-day phorbol 12-myristate 13-acetate (PMA) treatment (50 ng/ml), followed by a 1-day PMA-free medium resting. THP-1 macrophages were trypsinzed and used for co-culture as described in Material and methods.
as §2

[10] = Cammett et al. 2009, Mendes et al. 2014, cited from earlier work
IL-6 [11] = system: IL-6; design: method as in Steuerwald et al. 2013; Mahdy et al. 2002; Kang et al. 2001; details: ref Steuerwald et al. 2013; Mahdy et al. 2002; Kang et al. 2001; cited from earlier work
IL-10 [12] = system: IL-10; design: method as in Mahdy et al. 2002; details: ref Mahdy et al. 2002; cited from earlier work
PHH-PHKC co-culture = system: PHH-PHKC co-culture; design: method as in Messner et al., 2013; Sarkar et al., 2017; details: ref Messner et al., 2013; Sarkar et al., 2017; cited from earlier work
PHH = system: PHH; design: method as in Mennecozzi et al., 2015; details: ref Mennecozzi et al., 2015; read-out: IC50 in PHH mono-cultures; cited from earlier work
iHeps mono-cultures = system: iHeps mono-cultures; design: method as in Kia et al., 2015; details: ref Kia et al., 2015; cited from earlier work
[13] = binary classification by human hepatotoxicity; ref Thakkar et al. 2020; cited from earlier work
[14] = 48 h, read-out: IC50: viability

CC(=O)Nc1ccc(O)cc1 [APAP, acetaminophen]
reduction of IL-6 in HIVIL (IL-6 [1]; 2 mM): ~50%
group by drug-dependent IL-6 production (IL-6 [1]; HIVIL): dose-dependent inhibition
reduction of IL-6 (IL-6 [1]; HIVIL): 50%
IL-6 response (IL-6 [1]; HIVIL): decreased
IC50 (IL-6 [1]; HIVIL): 5360 µM
IC50 [2, 14]: 10200 µM
viability profiles among iHeps, iKCs and HIVIL ([2]; comparison of mono-cultures and co-culture): similar
IL-6 production (IL-6 [3]): Dose-dependent decrease
IL-6 / cytokine production in iKC mono-culture (IL-6 [4]): remained unchanged
Reported in-vivo (murine) responses: IL-10 (IL-10 [5]): IL-10↓
Reported in-vivo (murine) responses: cytokines (cytokines): IL-6/IL-10 are protective factors
IL-6 change (IL-6 [6]): increased
DILIrank [7]: most

O=C(O)Cc1ccccc1Nc1c(Cl)cccc1Cl [DIC, diclofenac]
IL-6 response (IL-6 [1]; HIVIL): dose-dependent decrease
IC50 (IL-6 [1]; HIVIL): 112 µM
IL-10 response (IL-10 [8]): decrease
IC50 [2, 14]: 385 µM
IC50 ([2]; read-out: IC50 (drug toxicity) in HIVIL): 385 µM
drug-specific IL-6 response with THP-1 macrophages (IL-6 [9]): did not detect
IL-6 production (IL-6 [3]): Dose-dependent decrease
Cmax ([10]; ref in each cell: Ademisoye et al. 2018, Xu et al. 2008, Agabeyoglu and Incecayir 2009, Rojanasthien et al. 2007, Reunanen et al. 1992, Li et al. 2002, Hong-mei et al. 2013, Bareggi et al. 1987, Jiang et al. 2008): 8 µM
Cmax ([10]; ref in each cell: Xu et al. 2008): 8 µM
Reported human responses: IL-6 (IL-6 [11]): IL-6↓
Reported human responses: IL-10 (IL-10 [12]): IL-10↑
IC50 (PHH-PHKC co-culture): ~127 µM
IC50 (PHH): ~1000 µM
IC50 (iHeps mono-cultures): ~1000 µM
DILIrank [7]: most
DILIst [13]: 1
